Experiments:
panel of 442 kinases [1] = molecular target: T1, panel of 442 kinases (Homo sapiens, UniProt Q92772); format: binding; settings: Compound Concentration 10 µM
T1 construct: purchased KINOMEscan
T1 sequence (Q92772 1-493): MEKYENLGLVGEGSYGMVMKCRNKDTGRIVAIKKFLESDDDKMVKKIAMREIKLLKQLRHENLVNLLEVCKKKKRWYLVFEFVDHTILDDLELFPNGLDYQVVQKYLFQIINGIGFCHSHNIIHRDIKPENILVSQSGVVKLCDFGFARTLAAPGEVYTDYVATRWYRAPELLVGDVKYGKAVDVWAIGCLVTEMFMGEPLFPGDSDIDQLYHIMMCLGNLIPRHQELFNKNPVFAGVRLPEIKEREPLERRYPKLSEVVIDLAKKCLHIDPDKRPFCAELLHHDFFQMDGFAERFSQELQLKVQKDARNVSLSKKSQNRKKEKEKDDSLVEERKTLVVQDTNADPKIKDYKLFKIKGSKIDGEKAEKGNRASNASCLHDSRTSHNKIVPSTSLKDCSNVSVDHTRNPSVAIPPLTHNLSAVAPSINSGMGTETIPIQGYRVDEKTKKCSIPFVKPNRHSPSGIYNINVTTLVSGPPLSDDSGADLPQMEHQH
Description: (§1) We assessed the selectivity of members of this scaffold using the KINOMEscan methodology across a near comprehensive panel of 442 kinases [[18,27]].

panel of 442 kinases [2] = molecular target: T2, panel of 442 kinases (Homo sapiens, UniProt Q13470); format: binding; settings: kinase TNK1; compound concentration 10 µM
T2 construct: purchased KINOMEscan
T2 sequence (Q13470 1-666): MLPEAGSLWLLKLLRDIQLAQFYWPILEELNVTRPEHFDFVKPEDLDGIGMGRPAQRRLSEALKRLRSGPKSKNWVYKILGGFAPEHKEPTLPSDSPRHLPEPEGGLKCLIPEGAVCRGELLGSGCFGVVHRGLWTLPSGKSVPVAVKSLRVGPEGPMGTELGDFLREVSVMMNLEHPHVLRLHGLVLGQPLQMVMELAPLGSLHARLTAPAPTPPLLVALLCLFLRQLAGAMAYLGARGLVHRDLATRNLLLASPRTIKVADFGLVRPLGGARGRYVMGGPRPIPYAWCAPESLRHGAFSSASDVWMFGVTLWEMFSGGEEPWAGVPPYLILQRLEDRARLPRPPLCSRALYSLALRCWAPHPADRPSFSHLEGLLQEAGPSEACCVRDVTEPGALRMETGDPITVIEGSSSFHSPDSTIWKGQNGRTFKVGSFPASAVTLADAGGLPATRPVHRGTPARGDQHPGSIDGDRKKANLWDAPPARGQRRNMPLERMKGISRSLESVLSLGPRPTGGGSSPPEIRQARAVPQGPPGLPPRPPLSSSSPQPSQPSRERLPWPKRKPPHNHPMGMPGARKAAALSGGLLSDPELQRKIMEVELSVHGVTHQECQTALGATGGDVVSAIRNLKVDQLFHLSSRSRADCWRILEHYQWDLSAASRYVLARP
Description: as §1

Structure (SMILES)	KINOMEscan: CDKL2 (panel of 442 kinases [1])	% Ctrl, TNK1 (panel of 442 kinases [2]) [% Ctrl]
CCOc1cc(C(=O)N2CCC(N3CCN(C)CC3)CC2)ccc1Nc1ncc2c(n1)N(C1CCCC1)c1ccccc1C(=O)N2C [Compound 26]	99	53
COc1cc(C(=O)N2CCC(N3CCN(C)CC3)CC2)ccc1Nc1ncc2c(n1)N1CCc3cccc(c31)C(=O)N2C [Compound 24]	–	5
COc1cc(C(=O)N2CCC(N3CCN(C)CC3)CC2)ccc1Nc1ncc2c(n1)N(C)c1ccccc1C(=O)N2C [15 (LRRK2-IN-1)]	100	2.8
COc1cc(C(=O)N2CCC(N3CCN(C)CC3)CC2)ccc1Nc1ncc2c(n1)N(C1CCCC1)c1ccccc1C(=O)N2C [Compound 25, 11-cyclopentyl-2-((2-methoxy-4-(4-(4-methylpiperazin-1-yl)piperidine-1-carbonyl)phenyl)amino)-5-methyl-5H-benzo[e]pyrimido[5,4-b][1,4]diazepin-6(11H)-one]	95	7.8

Source: paper PMC3914206
